Results on 18 molecules are retold here after US4576625A, “Fertilizers containing urea with urease inhibitors” (Huls Aktiengesellschaft, priority 1983, dated 1986).

Values joined by “and” are separate entries in the source; they are usually repeats but may differ in a detail not shown here. Equal values may be shown once.

One data set concerns urease. In kind it is biochemical.
The subject of data set [1] is rye grass. Briefly: Pot experiments with rye grass, urea as soil fertilizer with various urease inhibitors (Table 6). In kind it is in vivo. The following applies: urea four times 1.0 g N/pot; inhibitor 2% of the urea quantity; loamy sand pH 5.6. From the text: (§1) The results of the tests in Mitscherlich pots are compiled in Tables 6 and 7.
In Table 6 the various urease inhibitors as urea additives for soil fertilization are compared with one another. Both in overall crop yield as well as in N absorption and in raw protein content, the best results are achieved with bromo-nitro compounds. The maleic derivatives and the quinone product furnish poorer results.
(§2) The mixtures according to the invention used for the experiments of these tables were produced by powdering the urea prills with said bromo-nitro compounds; optionally, the prills can be sprayed before powdering with a hydrocarbon oil to improve adhesion. The bromo-nitro compounds soluble in liquid fertilizers containing urea pose no problems of distribution in dissolved fertilizers containing urea. In the case of slightly soluble bromo-nitro compounds, stirring must occur during the distribution. Optionally, solutizing agents can be added.

In data set [2] the test system is rye grass. Briefly: Pot tests for rye grass, urea as soil fertilizer optionally with 2% urease inhibitors, compared with KAS (Table 7). The data set is classed as in vivo. The following applies: for N Absorption / Raw Protein % of Dry Subst / Dry Substance: 2% inhibitor where added; for Dry Substance: 5 cuttings. The method, then:
as §1
In the experiments in Table 7 on rye grass, urea, with and without urease inhibitors, used as a soil fertilizer in application amounts between 0.5 and 1.0 g N/pot, was tested in comparison with KAS. As a product from the maleinimide group, Substance 64 from Table 1, i.e. N-methylmaleinimide was added; from the bromo-nitro compounds, Substance 1 of Table 2, bromo-2-nitropropyl-N-methylcarbamate was added. […] The yield of dry solids scarcely increases as the application of fertilizer increases from 0.75 to 1.0 g N both with urea fertilization alone as well as with the addition of a maleinimide compound.
as §2

Data set [3] deals with spring wheat, sirocco type. Briefly: Pot tests with spring wheat, urea or AUS as leaf fertilizer with urease inhibitor (Table 8). In kind it is in vivo. The text has this:
(In the case of the test series with AUS and urea, equal quantities of N were used. The quantities of the urease inhibitors used were increased in the same way in both test series. If, however, the inhibitor material is related to the use of urea-N, this means that in the case of AUS double the quantity comes into play.)

The test system of another data set is rats. The following applies: oral ingestion by rats; cited from earlier work.
Data set [4] in a line: Critical relative humidity (water activity) of fertilizer solutions. The following applies: 50% urea solution as for 100% salts; between 10° and 30° C. The data set is classed as physicochemical.
[5] abbreviates: AUS leaf fertilizer, inhibitor quantity 4 per 100 g urea-N.
The mark [6] stands for this setting: AUS leaf fertilizer, inhibitor quantity 8 per 100 g urea-N.
[7] abbreviates: urea solution leaf fertilizer, inhibitor quantity 2 per 100 g urea-N.
Where [8] appears, read: urea solution leaf fertilizer, inhibitor quantity 4 per 100 g urea-N.

As to `CNC(=O)OCC(C)(Br)[N+](=O)[O-]` (centres unmarked) [Subst. 1-Tab. 3, 2-Bromo-2-nitro-propyl-N--methylcarbamate], in the data set on urease, the “N losses of the soil through NH3 volatilization as % of the urea-N quantities used” value is 0.3% and 0.0%; the “N losses of the soil through NH3 volatilization calculated as % of the urea-N quantities used” value is 0.0% and 1.2% and 0.1%. For the same molecule, in the data set on rye grass [1], the “Dry Substance 1st-5th Cutting” value is given as 131.7 g/Pot, the N-absorption was determined as 3.29 g/Pot and the “Raw Protein % in Dry Substance” value stood at 15.6%. For the same molecule, in the data set with rye grass [2] (N fertilization 0.5 g N/pot), the “N Absorption” value is 1432 mg/Pot, the “Raw Protein % of Dry Subst” value is given as 12.62% and the “Dry Substance” value came to 70.9 g/Pot. Besides, in the data set on rye grass [2] (N fertilization 0.75 g N/pot), the “N Absorption” value turned out to be 2095 mg/Pot, the “Raw Protein % of Dry Subst” value was 16.43% and the “Dry Substance” value was 79.7 g/Pot. In the data set with rye grass [2] (N fertilization 1.0 g N/pot), the “N Absorption” value amounted to 2720 mg/Pot, the “Raw Protein % of Dry Subst” value is 19.68% and the “Dry Substance” value was 86.4 g/Pot. The “comparison of fertilizer combinations (in words)” value in the data set on rye grass [2] (urea + 2% inhibitor) is reported as “superior to the corresponding mixture with 2% of a maleinimide compound”. In data set [3] (setting [5]), the “Dry Substance” value was 68.68 g/pot, the N Absorption is listed as 1058 mg/pot and the “Raw Protein” value is 9.63%. In data set [3] (setting [6]), the “Dry Substance” value is 68.69 g/pot, the N Absorption worked out at 1051 mg/pot and the “Raw Protein” value is 9.56%. In addition, in data set [3] (setting [7]), the “Dry Substance” value came to 65.11 g/pot, the N Absorption amounted to 951 mg/pot and the “Raw Protein” value turned out to be 9.13%. Also, in data set [3] (setting [8]), the “Dry Substance” value came to 68.36 g/pot, the N Absorption was 1046 mg/pot and the “Raw Protein” value stood at 9.56%.

With `CCC(Br)(COC(=O)NC)[N+](=O)[O-]` (centres unmarked) [Subst. 2-Tab. 3, 2-Bromo-2-nitro-butyl-N--methylcarbamate], the “N losses of the soil through NH3 volatilization as % of the urea-N quantities used” value with urease is 0.5% and 0.0%.

As to `O=[N+]([O-])C(Br)(CO)CO` [Subst. 3-Tab. 3, 2-Bromo-2-nitro-propan-1,3-diol], in the data set with urease, the “N losses of the soil through NH3 volatilization as % of the urea-N quantities used” value is 0.9% and 0.0%; the “N losses of the soil through NH3 volatilization calculated as % of the urea-N quantities used” value was 0.0% and 0.5%. In the data set on rye grass [1], the “Dry Substance 1st-5th Cutting” value is 128.6 g/Pot, the N-absorption is listed as 3.15 g/Pot and the “Raw Protein % in Dry Substance” value is on record as 15.3%. In addition, in the data set on rats, the LD50 is recorded as 400 mg/kg.

For `CC(Br)(CO)[N+](=O)[O-]` (centres unmarked) [Subst. 4-Tab. 3, 2-Bromo-2-nitro-propanol], the “N losses of the soil through NH3 volatilization as % of the urea-N quantities used” value with urease was 2.1% and 0.0%. In the data set with rye grass [1], the “Dry Substance 1st-5th Cutting” value is recorded as 127.8 g/Pot, the N-absorption was 3.09 g/Pot and the “Raw Protein % in Dry Substance” value turned out to be 15.1%.

As for `CC(C)(C)C(O)C(Br)[N+](=O)[O-]` (centres unmarked) [Subst. 5-Tab. 3, 1-Bromo-1-nitro-3,3.dimethyl-butane-2-ol], the “N losses of the soil through NH3 volatilization as % of the urea-N quantities used” value with urease was 4.7% and 0.0%.

With `CCCC(O)C(Br)[N+](=O)[O-]` (centres unmarked) [Subst. 6-Tab. 3, 1-Bromo-1-nitro-pentanol-2], the “N losses of the soil through NH3 volatilization as % of the urea-N quantities used” value in the data set with urease was 6.5% and 0.0%.

Regarding `CCC(O)C(Br)[N+](=O)[O-]` (centres unmarked) [Subst. 7-Tab. 3, 1-Bromo-1-nitro-butanol-2], the “N losses of the soil through NH3 volatilization as % of the urea-N quantities used” value with urease was 8.3% and 0.0%.

On to `CC(C)C(O)C(Br)[N+](=O)[O-]` (centres unmarked) [Subst. 8-Tab. 3, 1-Bromo-1-nitro-3-methyl-butane-2-ol], for which the “N losses of the soil through NH3 volatilization as % of the urea-N quantities used” value in the data set with urease is 10.0% and 0.1%.

On to `CC(O)C(Br)[N+](=O)[O-]` (centres unmarked) [Subst. 11-Tab. 3, 1-Bromo-1-nitro-propanol-2], for which the “N losses of the soil through NH3 volatilization as % of the urea-N quantities used” value with urease worked out at 2.3%.

`O=C1C2C3C=CC(C3)C2C(=O)N1SC(Cl)(Cl)Cl` (centres unmarked) [Subst. 23-Tab. 2, reference compound]: in the data set with urease, the “urease inhibitor effect (in words)” value is “No outstanding inhibitor effect”.

Consider `O=C1C=CC(=O)C=C1` [Subst. 31-Tab. 1, 1,4-Benzoquinone], for which, in the data set with rye grass [1], the “Dry Substance 1st-5th Cutting” value is 118.3 g/Pot, the N-absorption was 2.54 g/Pot and the “Raw Protein % in Dry Substance” value is 13.4%.

Consider `CC(=O)OCN1C(=O)C=CC1=O` [Subst. 48-Tab. 1, N--Acetoximethylmaleinimide], for which the “urease inhibitor effect (in words)” value in the data set with urease is “best inhibitor effects”. Moreover, in the data set on rye grass [1], the “Dry Substance 1st-5th Cutting” value amounted to 129.7 g/Pot, the N-absorption came out at 2.85 g/Pot and the “Raw Protein % in Dry Substance” value is given as 13.7%.

As to `CCN1C(=O)C=CC1=O` [Subst. 56-Tab. 1, N--Ethylmaleinimide, reference compound], the “urease inhibitor effect (in words)” value in the data set on urease was “best inhibitor effects”.

On to `O=C1C=CC(=O)N1` [Subst. 61-Tab. 1, Maleinimide, reference compound], for which the “urease inhibitor effect (in words)” value in the data set on urease is listed as “best inhibitor effects”.

Turning to `CN1C(=O)C=CC1=O` [Subst. 64-Tab. 1, N--Methylmaleinimide, reference compound], in the data set with urease, the “urease inhibitor effect (in words)” value is given as “best inhibitor effects”. In addition, the “N Absorption” value in the data set on rye grass [2] (N fertilization 0.5 g N/pot) is listed as 1285 mg/Pot; in the data set with rye grass [2] (N fertilization 0.75 g N/pot), 1676 mg/Pot; in the data set on rye grass [2] (N fertilization 1.0 g N/pot), 1944 mg/Pot. The “Raw Protein % of Dry Subst” value with rye grass [2] (N fertilization 0.5 g N/pot) came out at 11.66%; in the data set with rye grass [2] (N fertilization 0.75 g N/pot), 12.82%; in the data set with rye grass [2] (N fertilization 1.0 g N/pot), 14.84%.

For the molecule `O=C1C=CC(=O)N1CO` [Subst. 66-Tab. 1, N--Methylolmaleinimide], the “urease inhibitor effect (in words)” value in the data set with urease is “best inhibitor effects”. In the data set with rye grass [1], the “Dry Substance 1st-5th Cutting” value is on record as 125.0 g/Pot, the N-absorption is on record as 2.85 g/Pot and the “Raw Protein % in Dry Substance” value worked out at 14.3%.

Consider `O=C(Nc1ccccc1)OCN1C(=O)C=CC1=O` [Subst. 68-Tab. 1, N--Methylolmaleinimide phenyl urethane], for which, in the data set on rye grass [1], the “Dry Substance 1st-5th Cutting” value is 124.0 g/Pot, the N-absorption stood at 2.83 g/Pot and the “Raw Protein % in Dry Substance” value came out at 14.3%.

As for `NC(N)=O` [urea], the “CRH value (critical relative humidity)” value in data set [4] was 75-76%.

Usually LD50 stands for the dose at which mortality reaches 50%.
